Experimental data published in ChEMBL document CHEMBL3864193 (Bioorg Med Chem, 2016).
pIC50: −log10 of the molar value.

Assays:
cells [1] = conditions: Homo sapiens, PC-3, 72 h
Description: Cytotoxicity against human PC3 cells after 72 hrs by MTT assay

cells [2] = conditions: Homo sapiens, MCF7, 72 h
Description: Cytotoxicity against human MCF7 cells after 72 hrs by MTT assay

[3] = Cytotoxicity against human A549 cells after 72 hrs by MTT assay; type: functional, cell-based; conditions: A549, 72 h
[4] = target: Vascular endothelial growth factor receptor 2 (Homo sapiens, UniProt P35968); test: Inhibition of VEGFR2 (unknown origin) by mobility shift/LanthaScreen assay
Vascular endothelial growth factor receptor 2, sequence (P35968 whole entry): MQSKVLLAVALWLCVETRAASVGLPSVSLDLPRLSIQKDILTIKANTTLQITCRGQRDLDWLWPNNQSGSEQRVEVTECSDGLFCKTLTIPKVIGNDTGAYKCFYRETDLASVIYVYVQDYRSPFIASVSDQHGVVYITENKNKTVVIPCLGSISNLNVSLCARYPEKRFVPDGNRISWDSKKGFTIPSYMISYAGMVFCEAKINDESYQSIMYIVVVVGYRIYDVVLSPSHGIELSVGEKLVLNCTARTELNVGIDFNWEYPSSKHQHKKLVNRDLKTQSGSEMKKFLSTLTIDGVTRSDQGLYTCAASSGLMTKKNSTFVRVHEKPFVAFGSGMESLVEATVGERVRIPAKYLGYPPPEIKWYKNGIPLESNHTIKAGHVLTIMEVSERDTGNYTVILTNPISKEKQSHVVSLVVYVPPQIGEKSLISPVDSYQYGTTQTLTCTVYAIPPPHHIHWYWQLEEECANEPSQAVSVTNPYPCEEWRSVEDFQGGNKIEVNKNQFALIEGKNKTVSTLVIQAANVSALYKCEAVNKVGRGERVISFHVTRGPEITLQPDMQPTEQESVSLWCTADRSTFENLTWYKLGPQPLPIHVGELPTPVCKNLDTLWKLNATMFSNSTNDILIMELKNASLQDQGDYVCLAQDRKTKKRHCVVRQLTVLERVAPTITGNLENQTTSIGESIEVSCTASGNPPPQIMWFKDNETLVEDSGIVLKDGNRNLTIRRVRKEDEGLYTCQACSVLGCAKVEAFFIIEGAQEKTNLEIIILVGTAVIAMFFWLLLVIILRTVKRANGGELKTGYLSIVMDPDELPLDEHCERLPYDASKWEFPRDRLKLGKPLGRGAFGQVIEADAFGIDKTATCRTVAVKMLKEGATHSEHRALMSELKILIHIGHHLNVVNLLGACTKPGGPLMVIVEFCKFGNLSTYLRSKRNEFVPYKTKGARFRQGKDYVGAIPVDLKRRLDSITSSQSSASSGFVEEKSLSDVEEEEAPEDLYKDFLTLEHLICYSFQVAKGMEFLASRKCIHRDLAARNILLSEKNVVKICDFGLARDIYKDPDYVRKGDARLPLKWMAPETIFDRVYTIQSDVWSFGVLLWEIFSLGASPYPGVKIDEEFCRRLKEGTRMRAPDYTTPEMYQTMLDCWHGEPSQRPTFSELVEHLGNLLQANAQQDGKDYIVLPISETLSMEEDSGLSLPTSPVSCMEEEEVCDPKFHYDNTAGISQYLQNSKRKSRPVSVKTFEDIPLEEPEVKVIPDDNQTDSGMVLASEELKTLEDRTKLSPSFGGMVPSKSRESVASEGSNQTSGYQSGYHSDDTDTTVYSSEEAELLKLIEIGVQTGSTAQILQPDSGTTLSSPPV

Row | SMILES | pIC50 (cells [1]) | pIC50 (cells [2]) | pIC50 [3] | pIC50 [4]
1 | CCc1ccc(-c2cc(C(=O)Nc3ccc(Oc4ccnc(C(=O)NC)c4)c(F)c3)ncn2)cc1 | 4.81 | 5.12 | 5.47 | 5.92
2 | CNC(=O)c1cc(Oc2ccc(NC(=O)c3cc(-c4ccccc4)ncn3)cc2F)ccn1 | 4.35 | 4.49 | 4.63 | 
3 | CNC(=O)c1cc(Oc2ccc(NC(=O)c3cc(-c4ccc(F)cc4)ncn3)cc2F)ccn1 | < 4.00 | < 4.00 | < 4.00 | 
4 | CNC(=O)c1cc(Oc2ccc(NC(=O)c3cc(-c4ccc(OC)cc4)ncn3)cc2F)ccn1 | 4.25 | 4.34 | 4.46 | 
5 | CNC(=O)c1cc(Oc2ccc(NC(=O)c3cc(-c4ccc(F)cc4)ncn3)cc2)ccn1 | < 4.00 | < 4.00 | < 4.00 | 
6 | CNC(=O)c1cc(Oc2ccc(NC(=O)c3nccc(-c4ccc([N+](=O)[O-])cc4)n3)cc2)ccn1 | < 4.00 | < 4.00 | < 4.00 | 
7 | CCc1ccc(-c2cc(C(=O)Nc3ccc(Oc4ccnc(C(=O)NC)c4)cc3)ncn2)cc1 | 4.53 | 5.20 | 4.88 | 5.44
8 | CNC(=O)c1cc(Oc2ccc(NC(=O)c3cc(-c4ccccc4)ncn3)cc2)ccn1 | 4.35 | 4.74 | 4.57 | 
9 | CNC(=O)c1cc(Oc2ccc(NC(=O)c3nccc(-c4ccc(C)cc4)n3)cc2F)ccn1 | 4.55 | 4.16 | 4.48 | 
10 | CNC(=O)c1cc(Oc2ccc(NC(=O)c3cc(-c4ccc(OC)cc4)ncn3)cc2)ccn1 | 4.41 | 4.53 | 4.87 | 
11 | CNC(=O)c1cc(Oc2ccc(NC(=O)c3cc(-c4ccc(Cl)cc4)ncn3)cc2)ccn1 | < 4.00 | < 4.00 | < 4.00 | 
12 | CNC(=O)c1cc(Oc2ccc(NC(=O)c3nccc(-c4ccc(OC)cc4)n3)cc2)ccn1 | 4.85 | 4.45 | 4.95 | 
13 | CNC(=O)c1cc(Oc2ccc(NC(=O)c3nccc(-c4cccc(Cl)c4)n3)cc2)ccn1 | 4.68 | < 4.00 | < 4.00 | 
14 | CNC(=O)c1cc(Oc2ccc(NC(=O)c3cc(-c4ccc(C)cc4)ncn3)cc2)ccn1 | < 4.00 | 4.46 | < 4.00 | 
15 | CNC(=O)c1cc(Oc2ccc(NC(=O)c3nccc(-c4ccc(C)cc4)n3)cc2)ccn1 | 4.88 | 4.35 | 4.55 | 
16 | CNC(=O)c1cc(Oc2ccc(NC(=O)c3nccc(-c4ccccc4)n3)cc2)ccn1 | 5.14 | 4.41 | 4.58 | 
17 | CNC(=O)c1cc(Oc2ccc(NC(=O)c3cc(-c4ccc(C(F)(F)F)cc4)ncn3)cc2)ccn1 | < 4.00 | < 4.00 | < 4.00 | 
18 | CNC(=O)c1cc(Oc2ccc(NC(=O)c3cc(-c4ccc(C(F)(F)F)cc4)ncn3)cc2F)ccn1 | < 4.00 | < 4.00 | < 4.00 | 
19 | CNC(=O)c1cc(Oc2ccc(NC(=O)c3nccc(-c4ccc(OC)cc4)n3)cc2F)ccn1 | 4.61 | < 4.00 | 4.78 | 
20 | CNC(=O)c1cc(Oc2ccc(NC(=O)c3cc(-c4ccc(Br)cc4)ncn3)cc2)ccn1 | < 4.00 | < 4.00 | < 4.00 | 
21 | CNC(=O)c1cc(Oc2ccc(NC(=O)c3cc(-c4ccc(C)cc4)ncn3)cc2F)ccn1 | 4.40 | 4.72 | 4.88 | 
22 | CNC(=O)c1cc(Oc2ccc(NC(=O)c3cc(-c4ccc(Cl)cc4)ncn3)cc2F)ccn1 | < 4.00 | < 4.00 | < 4.00 | 
23 | CNC(=O)c1cc(Oc2ccc(NC(=O)c3cc(-c4ccc(Br)cc4)ncn3)cc2F)ccn1 | < 4.00 | < 4.00 | < 4.00 | 
